From paper PMC4330696, “Characterization of the serine acetyltransferase gene family of Vitis vinifera uncovers differences in regulation of OAS synthesis in woody plants” (Frontiers in Plant Science, 2015)

Assays:
VvSERAT2;1 = biological target: T1, VvSERAT2;1 (Vitis vinifera, UniProt F6HCV5); assay: SERAT activity assay, titration with cysteine up to […]; type: biochemical; settings: read-out: Cys Inhibition (IC50 mM)
T1 construct: gene VIT_00s0194g00120; N-terminal His tag (pET28a), E. coli; lacks predicted transit peptide (57 residues predicted); naturally lacks canonical C-terminal tail; free SERAT without OASTL
T1 sequence (F6HCV5 58-306): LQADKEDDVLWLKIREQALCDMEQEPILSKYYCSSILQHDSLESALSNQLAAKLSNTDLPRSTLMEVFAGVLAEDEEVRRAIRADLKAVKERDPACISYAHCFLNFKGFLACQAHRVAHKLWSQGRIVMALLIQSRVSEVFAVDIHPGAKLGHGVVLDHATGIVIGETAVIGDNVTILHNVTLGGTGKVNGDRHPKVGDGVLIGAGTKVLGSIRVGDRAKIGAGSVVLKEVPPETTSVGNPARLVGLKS

AtOASTL-B = biological target: T2, AtOASTL-B (Arabidopsis thaliana, UniProt P47999); assay: OASTL activity assay (Gaitonde); […]-1 pmol enzyme, turnover only; type: biochemical; settings: co-substrate sulfide; control without SERAT
T2 construct: gene OASB; recombinant, expressed in E. coli (Wirtz et al. 2004)
T2 sequence (P47999 61-392): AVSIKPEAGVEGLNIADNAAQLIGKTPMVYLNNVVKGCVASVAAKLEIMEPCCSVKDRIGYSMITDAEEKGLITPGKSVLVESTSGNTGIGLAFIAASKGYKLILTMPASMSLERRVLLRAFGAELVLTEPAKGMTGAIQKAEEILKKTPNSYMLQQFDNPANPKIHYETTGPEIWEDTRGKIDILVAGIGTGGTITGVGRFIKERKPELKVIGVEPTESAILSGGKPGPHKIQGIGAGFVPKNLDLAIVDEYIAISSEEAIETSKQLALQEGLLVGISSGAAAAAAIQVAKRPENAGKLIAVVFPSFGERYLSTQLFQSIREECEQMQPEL

| IC50 (VvSERAT2;1) [mM] | Structure (SMILES) | OASTL activity (AtOASTL-B) |
| --- | --- | --- |
| 1.9 ± 0.56 | N[C@@H](CS)C(=O)O [L-Cys] |  |
|  | CC(=O)OC[C@H](N)C(=O)O [O-acetylserine] | Enzymatic activity of OASTL was determined according to Gaitonde |
